Assay results published in the supplement of paper PMC10307832.

Key:
Assay in all cases: relative viability (nuclei count vs DMSO), 5 days (fraction); higher = more cells survive
Calu-6 = test system: Calu-6
Method in brief: (§1)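 A single step with final 0.05% Triton X-100, 1% formaldehyde and 1 ug/ml Hoechst fixed the cells and stained nuclei 5 days after treatment. Lung cancer cell lines in 1536-well plates had been treated by pin tool the day after seeding with one drug alone or a fixed anchor-drug dose plus five library-drug doses (not always all listed) in √10 steps, and nuclei were counted on 4× images. Relative viability is the ratio of nuclei in treated wells to nuclei in vehicle wells, taken as the median of duplicate plates.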

IA-LM = test system: IA-LM
Method in brief: as §1

CAL-12T = test system: CAL-12T
Method in brief: as §1

NCI-H1703 = test system: NCI-H1703
Method in brief: as §1

NCI-H1650 = test system: NCI-H1650
Method in brief: as §1

EBC-1 = test system: EBC-1
Method in brief: as §1

LK-2 = test system: LK-2
Method in brief: as §1

A549 = test system: A549
Method in brief: as §1

NCI-H1299 = test system: NCI-H1299
Method in brief: as §1

For Oc1nc(-c2ccc(C(F)(F)F)cc2)nc2c1CSCC2 [XAV939] + C[C@@H](Oc1cc(-c2cnn(C3CCNCC3)c2)cnc1N)c1c(Cl)ccc(F)c1Cl [Crizotinib] (partner 1 µM), the relative viability (Calu-6; first compound 0.08 µM) was 0.822, the relative viability (Calu-6; first compound 0.253 µM) was 0.719 and the relative viability (Calu-6; first compound 0.8 µM) was 0.7. It also gave a relative viability (Calu-6; first compound 2.53 µM) of 0.758, a relative viability (IA-LM; first compound 0.08 µM) of 0.792 and a relative viability (IA-LM; first compound 0.253 µM) of 0.876. For the same compound, the relative viability (IA-LM; first compound 0.8 µM) was 0.398, the relative viability (IA-LM; first compound 2.53 µM) was 0.444 and the relative viability (CAL-12T; first compound 0.08 µM) was 0.687. It also gave a relative viability (CAL-12T; first compound 0.253 µM) of 0.449, a relative viability (CAL-12T; first compound 0.8 µM) of 0.419 and a relative viability (CAL-12T; first compound 2.53 µM) of 0.56. The relative viability (NCI-H1703; first compound 0.08 µM) was 0.787, the relative viability (NCI-H1703; first compound 0.253 µM) was 0.621 and the relative viability (NCI-H1703; first compound 0.8 µM) was 0.77. It also gave a relative viability (NCI-H1703; first compound 2.53 µM) of 0.583, a relative viability (NCI-H1650; first compound 0.08 µM) of 1.1 and a relative viability (NCI-H1650; first compound 0.253 µM) of 0.699. The relative viability (NCI-H1650; first compound 0.8 µM) was 0.948, the relative viability (NCI-H1650; first compound 2.53 µM) was 0.729 and the relative viability (EBC-1; first compound 0.08 µM) was 0.213. The relative viability (EBC-1; first compound 0.253 µM) was 0.223, the relative viability (EBC-1; first compound 0.8 µM) was 0.165 and the relative viability (EBC-1; first compound 2.53 µM) was 0.182. The relative viability (LK-2; first compound 0.08 µM) was 0.178, the relative viability (LK-2; first compound 0.253 µM) was 0.224 and the relative viability (LK-2; first compound 0.8 µM) was 0.181. The relative viability (LK-2; first compound 2.53 µM) was 0.207, the relative viability (A549; first compound 0.08 µM) was 1.07 and the relative viability (A549; first compound 0.253 µM) was 0.713. It also gave a relative viability (A549; first compound 0.8 µM) of 0.693, a relative viability (A549; first compound 2.53 µM) of 0.633 and a relative viability (NCI-H1299; first compound 0.08 µM) of 0.94. The relative viability (NCI-H1299; first compound 0.253 µM) was 0.978, the relative viability (NCI-H1299; first compound 0.8 µM) was 0.956 and the relative viability (NCI-H1299; first compound 2.53 µM) was 0.958.
In the case of CC1(C)CCC(c2ccc(Cl)cc2)=C(CN2CCN(c3ccc(C(=O)NS(=O)(=O)c4ccc(N[C@H](CCN5CCOCC5)CSc5ccccc5)c(S(=O)(=O)C(F)(F)F)c4)cc3)CC2)C1 [Navitoclax] + C[C@@H](Oc1cc(-c2cnn(C3CCNCC3)c2)cnc1N)c1c(Cl)ccc(F)c1Cl [Crizotinib] (partner 1 µM), the relative viability (Calu-6; first compound 0.005 µM) is reported as 0.843, the relative viability (Calu-6; first compound 0.01581 µM) is reported as 0.812 and the relative viability (Calu-6; first compound 0.05 µM) is reported as 0.894. It also gave a relative viability (Calu-6; first compound 0.1581 µM) of 0.741, a relative viability (Calu-6; first compound 0.5 µM) of 0.78 and a relative viability (IA-LM; first compound 0.005 µM) of 0.861. It also gave a relative viability (IA-LM; first compound 0.01581 µM) of 0.636, a relative viability (IA-LM; first compound 0.05 µM) of 0.875 and a relative viability (IA-LM; first compound 0.1581 µM) of 0.944. The relative viability (IA-LM; first compound 0.5 µM) was 0.908, the relative viability (CAL-12T; first compound 0.005 µM) was 0.589 and the relative viability (CAL-12T; first compound 0.01581 µM) was 0.653. For the same compound, the relative viability (CAL-12T; first compound 0.05 µM) was 0.725, the relative viability (CAL-12T; first compound 0.1581 µM) was 0.744 and the relative viability (CAL-12T; first compound 0.5 µM) was 0.536. For the same compound, the relative viability (NCI-H1703; first compound 0.005 µM) was 0.73, the relative viability (NCI-H1703; first compound 0.01581 µM) was 0.602 and the relative viability (NCI-H1703; first compound 0.05 µM) was 1.22. The relative viability (NCI-H1703; first compound 0.1581 µM) was 0.726, the relative viability (NCI-H1703; first compound 0.5 µM) was 0.754 and the relative viability (NCI-H1650; first compound 0.005 µM) was 0.995. It also gave a relative viability (NCI-H1650; first compound 0.01581 µM) of 1.13, a relative viability (NCI-H1650; first compound 0.05 µM) of 1.17 and a relative viability (NCI-H1650; first compound 0.1581 µM) of 0.938. The relative viability (NCI-H1650; first compound 0.5 µM) was 0.667, the relative viability (EBC-1; first compound 0.005 µM) was 0.178 and the relative viability (EBC-1; first compound 0.01581 µM) was 0.227. The relative viability (EBC-1; first compound 0.05 µM) was 0.192, the relative viability (EBC-1; first compound 0.1581 µM) was 0.195 and the relative viability (EBC-1; first compound 0.5 µM) was 0.204. For the same compound, the relative viability (LK-2; first compound 0.005 µM) was 0.226, the relative viability (LK-2; first compound 0.01581 µM) was 0.21 and the relative viability (LK-2; first compound 0.05 µM) was 0.246. For the same compound, the relative viability (LK-2; first compound 0.1581 µM) was 0.191, the relative viability (LK-2; first compound 0.5 µM) was 0.263 and the relative viability (A549; first compound 0.005 µM) was 0.756. It also gave a relative viability (A549; first compound 0.01581 µM) of 0.805, a relative viability (A549; first compound 0.05 µM) of 0.825 and a relative viability (A549; first compound 0.1581 µM) of 0.729. It also gave a relative viability (A549; first compound 0.5 µM) of 0.744, a relative viability (NCI-H1299; first compound 0.005 µM) of 0.99 and a relative viability (NCI-H1299; first compound 0.01581 µM) of 0.99. For the same compound, the relative viability (NCI-H1299; first compound 0.05 µM) was 1.02, the relative viability (NCI-H1299; first compound 0.1581 µM) was 0.926 and the relative viability (NCI-H1299; first compound 0.5 µM) was 0.981.
O=C(O)c1ccc(-c2c[nH]c3ncc(-c4ccccc4)cc23)cc1C1CCCC1 + C[C@@H](Oc1cc(-c2cnn(C3CCNCC3)c2)cnc1N)c1c(Cl)ccc(F)c1Cl [Crizotinib] (partner 1 µM) showed a relative viability (Calu-6; first compound 0.04 µM) of 0.828, a relative viability (Calu-6; first compound 0.1265 µM) of 0.777 and a relative viability (Calu-6; first compound 0.4 µM) of 0.72. It also gave a relative viability (Calu-6; first compound 1.265 µM) of 0.636, a relative viability (IA-LM; first compound 0.04 µM) of 0.698 and a relative viability (IA-LM; first compound 0.1265 µM) of 0.772. For the same compound, the relative viability (IA-LM; first compound 0.4 µM) was 0.893, the relative viability (IA-LM; first compound 1.265 µM) was 0.835 and the relative viability (CAL-12T; first compound 0.04 µM) was 0.633. For the same compound, the relative viability (CAL-12T; first compound 0.1265 µM) was 0.755, the relative viability (CAL-12T; first compound 0.4 µM) was 0.701 and the relative viability (CAL-12T; first compound 1.265 µM) was 0.528. It also gave a relative viability (NCI-H1703; first compound 0.04 µM) of 0.482, a relative viability (NCI-H1703; first compound 0.1265 µM) of 0.85 and a relative viability (NCI-H1703; first compound 0.4 µM) of 0.669. For the same compound, the relative viability (NCI-H1703; first compound 1.265 µM) was 0.647, the relative viability (NCI-H1650; first compound 0.04 µM) was 1.02 and the relative viability (NCI-H1650; first compound 0.1265 µM) was 0.996. For the same compound, the relative viability (NCI-H1650; first compound 0.4 µM) was 0.917, the relative viability (NCI-H1650; first compound 1.265 µM) was 0.743 and the relative viability (EBC-1; first compound 0.04 µM) was 0.185. For the same compound, the relative viability (EBC-1; first compound 0.1265 µM) was 0.217, the relative viability (EBC-1; first compound 0.4 µM) was 0.185 and the relative viability (EBC-1; first compound 1.265 µM) was 0.191. For the same compound, the relative viability (LK-2; first compound 0.04 µM) was 0.31, the relative viability (LK-2; first compound 0.1265 µM) was 0.202 and the relative viability (LK-2; first compound 0.4 µM) was 0.291. The relative viability (LK-2; first compound 1.265 µM) was 0.198, the relative viability (A549; first compound 0.04 µM) was 0.795 and the relative viability (A549; first compound 0.1265 µM) was 0.776. The relative viability (A549; first compound 0.4 µM) was 0.668, the relative viability (A549; first compound 1.265 µM) was 0.44 and the relative viability (NCI-H1299; first compound 0.04 µM) was 0.966. For the same compound, the relative viability (NCI-H1299; first compound 0.1265 µM) was 0.952, the relative viability (NCI-H1299; first compound 0.4 µM) was 0.916 and the relative viability (NCI-H1299; first compound 1.265 µM) was 0.868.
